In patent publication US20220041647A1, “ESTRA-1,3,5(10)-TRIENE COMPOUNDS CONDENSED IN POSITION 16(17) WITH A PYRAZOLE RING AS INHIBITORS OF 17-HSD1” (FORENDO PHARMA LTD, priority 2018, published 2022):

Columns and labels:
[1] = Metabolic stability assay, human hepatocyte incubations; type: in vitro ADME; conditions: compound 1 μM, human hepatocytes, 0-60 min at 37° C.; read-out: Human hepatocytes MetStab T½ min
Experimental: Compound stock solutions of the invention were prepared in […]. Final concentration of DMSO was adjusted to 1% in all samples. The in vitro metabolic stability of the compounds of the invention was determined for exemplified compounds using human hepatocyte incubations; study compounds at concentration of 1 μM were incubated 0, 10, 20, 40 and 60 min at 37° C. Samples were collected at all time points and compounds were detected by LC-MS/MS analysis. The percent compound remaining is calculated by comparing the peak area of the parent compound at each time point to time zero. In vitro metabolic stability was determined as half life (T1/2), which was determined by regression analysis of the percent parent disappearance vs. time curve.

[2] = target: T1, recombinant human 17β-HSD1 (Homo sapiens, UniProt P14061); experiment: Inhibition of recombinant human 17β-HSD1 (estrone to estradiol conversion, HPLC/radioactivity); type: biochemical; conditions: compound 100 nM; 30 nM estrone, 1 mM NADPH, 30 min RT
T1 construct: made in house; host or cells: Sd9 (Sf9) insect cells, baculovirus (Bac to Bac Expression System)
T1 sequence (P14061 1-328): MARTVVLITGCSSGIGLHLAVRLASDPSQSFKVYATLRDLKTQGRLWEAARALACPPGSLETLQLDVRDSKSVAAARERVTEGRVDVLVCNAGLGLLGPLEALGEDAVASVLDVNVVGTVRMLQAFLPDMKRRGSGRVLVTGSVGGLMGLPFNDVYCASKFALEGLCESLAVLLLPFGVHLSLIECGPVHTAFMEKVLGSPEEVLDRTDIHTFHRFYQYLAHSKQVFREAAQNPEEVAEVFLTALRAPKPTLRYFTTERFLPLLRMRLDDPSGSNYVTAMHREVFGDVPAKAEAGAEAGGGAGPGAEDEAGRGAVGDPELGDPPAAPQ
Procedure, shortened: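 Microsomal human 17β-HSD1 from Sf9 baculovirus (1 μg/ml) was incubated 30 min at RT in 20 mM KH2PO4 pH 7.4 with 30 nM ^3H-estrone, 1 mM NADPH and inhibitor at 1 μM or 0.1 μM (1% DMSO). Estrone and estradiol were separated by HPLC with radioactivity detection. % inhibition = 100 − % conversion relative to uninhibited control.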

[3] = target: T2, recombinant human 17β-HSD2 (Homo sapiens, UniProt P37059); experiment: Inhibition of recombinant human 17β-HSD2 (estradiol to estrone conversion, HPLC/radioactivity); type: biochemical; conditions: compound 1 μM; 50 nM estradiol, 1 mM NADH, 30 min RT
T2 construct: made in house; host or cells: Sd9 (Sf9) insect cells, baculovirus (Bac to Bac Expression System)
T2 sequence (P37059 1-387): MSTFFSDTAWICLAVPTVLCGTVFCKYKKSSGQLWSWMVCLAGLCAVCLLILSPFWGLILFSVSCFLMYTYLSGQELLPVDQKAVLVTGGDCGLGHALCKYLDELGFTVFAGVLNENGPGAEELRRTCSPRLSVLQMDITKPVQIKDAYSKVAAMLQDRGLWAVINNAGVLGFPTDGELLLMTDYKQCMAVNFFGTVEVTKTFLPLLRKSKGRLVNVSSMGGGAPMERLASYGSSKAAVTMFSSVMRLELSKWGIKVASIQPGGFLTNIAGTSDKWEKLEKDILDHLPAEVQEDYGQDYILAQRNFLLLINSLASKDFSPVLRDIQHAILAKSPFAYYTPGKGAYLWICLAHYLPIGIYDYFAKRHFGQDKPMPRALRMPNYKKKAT
Procedure, shortened: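 Membrane extract of Sf9 cells expressing recombinant human 17β-HSD2 (4 μg/ml), in 20 mM KH2PO4 pH 8.5 with 50 nM ^3H-spiked estradiol and 1 mM NADH, 30 min at RT, 1% DMSO. Compound at 1 μM or 0.1 μM; estrone formation by HPLC radioactivity, % inhibition relative to uninhibited conversion.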

CC(C)(C)NC(=O)CC[C@@H]1c2c[nH]nc2[C@@]2(C)CCC3c4ccccc4CCC3C12 (stereo partly drawn) [Compound 201, N-(tert-butyl)-3-((8aS,12S)-8a-methyl-1,2,6b,7,8,8a,10,12,12a,12b-decahydronaphtho[2′,1′:4,5]indeno[1,2-c]pyrazol-12-yl)propanamide]
half-life at 1 μM [1]: 13 min
inhibition at 0.1 µM [2]: 87%
inhibition at 1 µM [3]: 4%

C[C@]12CCC3c4cccc(F)c4CCC3C1[C@H](CCC(=O)N1CCOCC1)c1c[nH]nc12 (stereo partly drawn) [Compound 234, 3-((8aS,12S)-3-fluoro-8a-methyl-1,2,6b,7,8,8a,10,12,12a,12b-decahydronaphtho[2′,1′:4,5]indeno[1,2-c]pyrazol-12-yl)-1-morpholinopropan-1-one]
half-life at 1 μM [1]: 26 min
inhibition at 0.1 µM [2]: 85%
inhibition at 1 µM [3]: 0%
